The data set can be described thus: GVS characterization of Form III. The class given is physicochemical. Conditions: at 90% RH.

Compound `Cc1cc(C)cc([C@@H]2CCCN2Cc2ccc(Oc3ccc(C(N)=O)cc3F)cc2)c1` [Form III] had a GVS max uptake of 0.4% max uptake at 90% RH.
